{
  "source": "the supplement of paper PMC11061612",
  "assay_in_all_cases": "Bliss excess, mean over the matrix (fraction); higher = more synergy",
  "key": {"[1]": {"test_system": "NCI-H810 (Non-Small Cell Lung Carcinoma)", "summary_of_the_method": "(§1)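 Cell lines in DMEM/F12 or RPMI with 10% FBS were plated in 1536-well plates, held 24 hours at 37°C, 5% CO2, then given two-drug dose matrices for 72 hours (DMSO typically 0.2%). Viability was read by CellTiter-Glo 2.0 luminescence and scaled as inhibition from 0 (vehicle wells) to 1 (blank wells). Combination Emax is the second-highest inhibition in the matrix; Bliss excess is observed combination effect minus expected EA + EB − EA·EB, EA and EB being single-agent effects.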"}, "CHL-1 (Melanoma)": {"test_system": "CHL-1 (Melanoma)", "summary_of_the_method": "as §1"}, "[2]": {"test_system": "HSC-3 (Oral Cavity Carcinoma)", "summary_of_the_method": "as §1"}, "[3]": {"test_system": "OCI-AML5 (Acute Myeloid Leukemia)", "summary_of_the_method": "as §1"}, "[4]": {"test_system": "LOUCY (T-Lymphoblastic Leukemia)", "summary_of_the_method": "as §1"}, "[5]": {"test_system": "AsPC-1 (Pancreatic Carcinoma)", "summary_of_the_method": "as §1"}, "[6]": {"test_system": "COLO-684 (Endometrial Carcinoma)", "summary_of_the_method": "as §1"}, "[7]": {"test_system": "NCI-H1155 (Non-Small Cell Lung Carcinoma)", "summary_of_the_method": "as §1"}, "[8]": {"test_system": "Becker (Low Grade Glioma)", "summary_of_the_method": "as §1"}, "[9]": {"test_system": "SW684 (Other Solid Carcinomas)", "summary_of_the_method": "as §1"}, "[10]": {"test_system": "RL95-2 (Endometrial Carcinoma)", "summary_of_the_method": "as §1"}, "[11]": {"test_system": "NKM-1 (Acute Myeloid Leukemia)", "summary_of_the_method": "as §1"}, "[12]": {"test_system": "KYSE-70 (Esophageal Squamous Cell Carcinoma)", "summary_of_the_method": "as §1"}, "[13]": {"test_system": "BALL-1 (B-Lymphoblastic Leukemia)", "summary_of_the_method": "as §1"}, "[14]": {"test_system": "RERF-LC-KJ (Lung Adenocarcinoma)", "summary_of_the_method": "as §1"}, "[15]": {"test_system": "OV-90 (Ovarian Carcinoma)", "summary_of_the_method": "as §1"}, "[16]": {"test_system": "RMG-I (Ovarian Carcinoma)", "summary_of_the_method": "as §1"}, "[17]": {"test_system": "NCI-H1623 (Lung Adenocarcinoma)", "summary_of_the_method": "as §1"}, "KYM-1 (Rhabdomyosarcoma)": {"test_system": "KYM-1 (Rhabdomyosarcoma)", "summary_of_the_method": "as §1"}, "[18]": {"test_system": "PC-14 (Lung Adenocarcinoma)", "summary_of_the_method": "as §1"}},
  "data": [
    {"compound": "CC1(C)CCC(CN2CCN(c3ccc(C(=O)NS(=O)(=O)c4ccc(NCC5CCOCC5)c([N+](=O)[O-])c4)c(Oc4cnc5[nH]ccc5c4)c3)CC2)=C(c2ccc(Cl)cc2)C1", "note": "[Venetoclax] + Cn1cnc2c(F)c(Nc3ccc(Br)cc3Cl)c(C(=O)NOCCO)cc21 [Selumetinib] (first compound max 1 µM, 7x7, partner max 3 µM)", "values": [
      {"measurement": "Bliss excess", "setting": "[1]", "result": -0.052},
      {"measurement": "Bliss excess", "setting": "CHL-1 (Melanoma)", "result": -0.0418},
      {"measurement": "Bliss excess", "setting": "[2]", "result": -0.0043},
      {"measurement": "Bliss excess", "setting": "[3]", "result": 0.111},
      {"measurement": "Bliss excess", "setting": "[4]", "result": 0.0179},
      {"measurement": "Bliss excess", "setting": "[5]", "result": -0.0748},
      {"measurement": "Bliss excess", "setting": "[6]", "result": -0.0263},
      {"measurement": "Bliss excess", "setting": "[7]", "result": -0.0317},
      {"measurement": "Bliss excess", "setting": "[8]", "result": -0.008},
      {"measurement": "Bliss excess", "setting": "[9]", "result": -0.0631},
      {"measurement": "Bliss excess", "setting": "[10]", "result": -0.0313},
      {"measurement": "Bliss excess", "setting": "[11]", "result": 0.0456},
      {"measurement": "Bliss excess", "setting": "[12]", "result": 0.012},
      {"measurement": "Bliss excess", "setting": "[13]", "result": -0.0026},
      {"measurement": "Bliss excess", "setting": "[14]", "result": -0.0265},
      {"measurement": "Bliss excess", "setting": "[15]", "result": -0.0345},
      {"measurement": "Bliss excess", "setting": "[16]", "result": -0.0727},
      {"measurement": "Bliss excess", "setting": "[17]", "result": -0.0046},
      {"measurement": "Bliss excess", "setting": "KYM-1 (Rhabdomyosarcoma)", "result": -0.003},
      {"measurement": "Bliss excess", "setting": "[18]", "result": -0.0229}
    ]}
  ]
}
